In patent US8710228B2, “Cycloalkylamine substituted isoquinoline derivatives” (Sanofi, priority 2006, dated 2014):

Target: T1, ROCKII or ROKα (Rattus norvegicus, UniProt Q62868)
T1 construct: purchased Upstate 14-451
Experiment: Determination of Rho kinase inhibition (33P-ATP, Streptavidin Flash Plate)
Format: biochemical
Conditions: ATP 40 μM, activity denoted as pIC50 classes
Procedure: Determination of Rho Kinase Inhibition
To measure Rho-kinase inhibition, IC50 values were determined according to the following protocol:
Buffer: 25 mM Tris pH7.5; 0.02% BSA; 5% Glycerol; 0.008% Triton X100; 2% DMSO, 1 mM DTT; 1 mM MgCl2; 0.5 μCi/well γ^33P ATP
Enzyme: ROCKII or ROKα) (Upstate, Catalog #14-451 Lot # 24880U) 0.1 ng/μl
Final concentration of ATP in reaction mixture 40 μM
Biotinylated substrate, diluted to 0.25 μM with buffer described above (without ATP) • 1. 10 μl Tris buffer (±Inhibitor) • 2. Add 30 μL of enzyme solution • 3. Start the reaction with 30 μL of mix substrate/ATP/ATP33 • 4. Incubate for 20 min at room temperature • 5. Stop reaction with 30 μL of 50 mM EDTA • 6. Transfer 50 μL of stopped solution to Streptavidin Flash Plate plus, Perkin Elmer, SMP 103A • 7. Incubate for 30 min at RT • 8. Wash 4 times with 300 μl of PBS/0.1% Tween 20 • 9. Radioactivity in the well was determined

T1 sequence (Q62868 11-552 limits assumed): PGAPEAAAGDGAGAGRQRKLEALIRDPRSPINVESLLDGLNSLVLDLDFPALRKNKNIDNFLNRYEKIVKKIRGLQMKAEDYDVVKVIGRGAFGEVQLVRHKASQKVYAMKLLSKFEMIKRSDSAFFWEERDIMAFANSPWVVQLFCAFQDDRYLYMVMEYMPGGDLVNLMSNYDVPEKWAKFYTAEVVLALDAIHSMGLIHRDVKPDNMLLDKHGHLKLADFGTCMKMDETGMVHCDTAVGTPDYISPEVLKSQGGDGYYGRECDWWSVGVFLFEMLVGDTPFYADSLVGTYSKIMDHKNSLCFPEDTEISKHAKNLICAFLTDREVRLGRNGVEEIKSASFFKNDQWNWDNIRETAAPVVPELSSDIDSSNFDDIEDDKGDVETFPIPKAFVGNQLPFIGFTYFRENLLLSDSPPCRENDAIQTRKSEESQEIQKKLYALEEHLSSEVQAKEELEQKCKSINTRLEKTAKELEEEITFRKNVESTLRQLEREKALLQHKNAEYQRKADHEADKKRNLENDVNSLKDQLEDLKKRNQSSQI

| IC50 | SMILES |
| --- | --- |
| +++++ (6.0 ≦ pIC50) | Clc1c(OC2CCC(NC3CCCCC3)CC2)ccc2cnccc12 (stereo not shown) [Example 80, [4-(5-Chloro-isoquinolin-6-yloxy)-cyclohexyl]-cyclohexyl-amine] |
| +++++ (6.0 ≦ pIC50) | Cl.N[C@H]1CC[C@@H](Oc2ccc3cnccc3c2-c2ccsc2)CC1 [Example 87, cis-4-(5-Thiophen-3-yl-isoquinolin-6-yloxy)-cyclohexylamine] |
| +++++ (6.0 ≦ pIC50) | C=Cc1c(O[C@H]2CC[C@@H](N)CC2)ccc2cnccc12.Cl [Example 90, cis-4-(5-Vinyl-isoquinolin-6-yloxy)-cyclohexylamine] |
| +++++ (6.0 ≦ pIC50) | N[C@H]1CC[C@H](Oc2c(Cl)cc3cnccc3c2Cl)CC1 [Example 96, trans-4-(5,7-Dichloro-isoquinolin-6-yloxy)-cyclohexylamine] |
| ++++ (5.0 ≦ pIC50 < 6.0) | N[C@H]1CC[C@@H](Oc2ccc3cnc(Nc4cccc(Cl)c4)cc3c2)CC1 [Example 147, cis-[6-(4-Amino-cyclohexyloxy)-isoquinolin-3-yl]-(3-chloro-phenyl)-amine] |
| +++++ (6.0 ≦ pIC50) | COc1cc(Nc2cc3cc(O[C@H]4CC[C@@H](N)CC4)ccc3cn2)cc(OC)c1OC.Cl [Example 149, cis-[6-(4-Amino-cyclohexyloxy)-isoquinolin-3-yl]-(3,4,5-trimethoxy-phenyl)-amine] |
| ++++ (5.0 ≦ pIC50 < 6.0) | N[C@H]1CC[C@@H](Oc2ccc3cnc(Nc4cnccn4)cc3c2)CC1 [Example 150, cis-[6-(4-Amino-cyclohexyloxy)-isoquinolin-3-yl]-pyrazin-2-yl-amine] |
| +++++ (6.0 ≦ pIC50) | CCc1cncc2ccc(O[C@H]3CC[C@@H](N)CC3)cc12 [Example 156, cis-4-(4-Ethyl-isoquinolin-6-yloxy)-cyclohexylamine] |

Second part, the compound before the results:

| SMILES | IC50 |
| --- | --- |
| CC1(c2ccc(CNC3CCC(Oc4ccc5cnccc5c4)CC3)cc2)NC(=O)NC1=O.O=C(O)C(F)(F)F (mixture of isomers) [Example 38, 5-(4-{[4-(isoquinolin-6-yloxy)-cyclohexylamino]-methyl}-phenyl)-5-methyl-imidazolidine-2,4-dione] | +++++ (6.0 ≦ pIC50) |
| CC(C)CN(C)C1CCC(Oc2ccc3cnccc3c2)CC1.O=C(O)C(F)(F)F (mixture of isomers) [Example 45, Isobutyl-[4-(isoquinolin-6-yloxy)-cyclohexyl]-methyl-amine] | ++++ (5.0 ≦ pIC50 < 6.0) |
| CN(Cc1cnn(-c2ccc(F)cc2)c1)C1CCC(Oc2ccc3cnccc3c2)CC1.O=C(O)C(F)(F)F (mixture of isomers) [Example 52, [1-(4-Fluoro-phenyl)-1H-pyrazol-4-ylmethyl]-[4-(isoquinolin-6-yloxy)-cyclohexyl]-methyl-amine] | ++++ (5.0 ≦ pIC50 < 6.0) |
| O=C(O)C(F)(F)F.c1ccc2c(CNC3CCC(Oc4ccc5cnccc5c4)CC3)cccc2c1 (mixture of isomers) [Example 54, [4-(Isoquinolin-6-yloxy)-cyclohexyl]-naphthalen-1-ylmethyl-amine] | ++++ (5.0 ≦ pIC50 < 6.0) |
| O=C(O)C(F)(F)F.c1csc(-c2nc(CNC3CCC(Oc4ccc5cnccc5c4)CC3)cs2)c1 (mixture of isomers) [Example 58, [4-(Isoquinolin-6-yloxy)-cyclohexyl]-(2-thiophen-2-yl-thiazol-4-ylmethyl)-amine] | ++++ (5.0 ≦ pIC50 < 6.0) |
| N[C@H]1CC[C@@H](Oc2ccc3cnccc3c2Cl)CC1 [Example 13, cis-4-(5-Chloro-isoquinolin-6-yloxy)-cyclohexylamine] | +++++ (6.0 ≦ pIC50) |
| N[C@H]1CC[C@@H](Oc2ccc3cncc(Cl)c3c2)CC1 [Example 14, cis-4-(4-Chloro-isoquinolin-6-yloxy)-cyclohexylamine] | +++++ (6.0 ≦ pIC50) |
| N[C@H]1CC[C@@H](Oc2ccc3cnccc3c2Br)CC1 [Example 19, cis-4-(5-Bromo-isoquinolin-6-yloxy)-cyclohexylamine] | +++++ (6.0 ≦ pIC50) |
| c1cncc(CN[C@H]2CC[C@@H](Oc3ccc4cnccc4c3)CC2)c1 [Example 23, cis-[4-(Isoquinolin-6-yloxy)-cyclohexyl]-pyridin-3-ylmethyl-amine] | +++++ (6.0 ≦ pIC50) |
| CC(C)N[C@H]1CC[C@@H](Oc2ccc3cnccc3c2)CC1 [Example 26, Isopropyl-cis-[4-(isoquinolin-6-yloxy)-cyclohexyl]-amine] | +++++ (6.0 ≦ pIC50) |
| CCOC(=O)N1CCN(C2CCC(Oc3ccc4cnccc4c3)CC2)CC1.O=C(O)C(F)(F)F (stereo not shown) [Example 44, 4-[4-(Isoquinolin-6-yloxy)-cyclohexyl]-piperazine-1-carboxylic acid ethyl ester] | ++++ (5.0 ≦ pIC50 < 6.0) |
| c1cc2cc(O[C@H]3CC[C@@H](NC4CC4)CC3)ccc2cn1 [Example 64, cis-Cyclopropyl-[4-(isoquinolin-6-yloxy)-cyclohexyl]-amine] | +++++ (6.0 ≦ pIC50) |
| CC(=O)Nc1ccc(CN[C@H]2CC[C@@H](Oc3ccc4cnccc4c3)CC2)cc1 [Example 72, cis-N-(4-{[4-(Isoquinolin-6-yloxy)-cyclohexylamino]-methyl}-phenyl)-acetamide] | +++++ (6.0 ≦ pIC50) |
| CN(C)/C=N/S(=O)(=O)c1cc(CN[C@H]2CC[C@@H](Oc3ccc4cnccc4c3Cl)CC2)ccc1Cl [Example 74, 2-Chloro-5-{cis-[4-(5-chloro-isoquinolin-6-yloxy)-cyclohexylamino]-methyl}-N-dimethylaminomethylene-benzenesulfonamide] | +++++ (6.0 ≦ pIC50) |
